{"source": "paper PMC6934184", "about": "“Selective DNA-PKcs inhibition extends the therapeutic index of localized radiotherapy and chemotherapy” (The Journal of Clinical Investigation, 2019)", "molecular_target": "T1, ALK F1174L (Homo sapiens, UniProt Q9UM73, F1174L)", "T1 construct": "purchased Thermo Fisher Scientific (Life Technologies) SelectScreen", "T1 sequence (Q9UM73 19-1620 F1174L)": "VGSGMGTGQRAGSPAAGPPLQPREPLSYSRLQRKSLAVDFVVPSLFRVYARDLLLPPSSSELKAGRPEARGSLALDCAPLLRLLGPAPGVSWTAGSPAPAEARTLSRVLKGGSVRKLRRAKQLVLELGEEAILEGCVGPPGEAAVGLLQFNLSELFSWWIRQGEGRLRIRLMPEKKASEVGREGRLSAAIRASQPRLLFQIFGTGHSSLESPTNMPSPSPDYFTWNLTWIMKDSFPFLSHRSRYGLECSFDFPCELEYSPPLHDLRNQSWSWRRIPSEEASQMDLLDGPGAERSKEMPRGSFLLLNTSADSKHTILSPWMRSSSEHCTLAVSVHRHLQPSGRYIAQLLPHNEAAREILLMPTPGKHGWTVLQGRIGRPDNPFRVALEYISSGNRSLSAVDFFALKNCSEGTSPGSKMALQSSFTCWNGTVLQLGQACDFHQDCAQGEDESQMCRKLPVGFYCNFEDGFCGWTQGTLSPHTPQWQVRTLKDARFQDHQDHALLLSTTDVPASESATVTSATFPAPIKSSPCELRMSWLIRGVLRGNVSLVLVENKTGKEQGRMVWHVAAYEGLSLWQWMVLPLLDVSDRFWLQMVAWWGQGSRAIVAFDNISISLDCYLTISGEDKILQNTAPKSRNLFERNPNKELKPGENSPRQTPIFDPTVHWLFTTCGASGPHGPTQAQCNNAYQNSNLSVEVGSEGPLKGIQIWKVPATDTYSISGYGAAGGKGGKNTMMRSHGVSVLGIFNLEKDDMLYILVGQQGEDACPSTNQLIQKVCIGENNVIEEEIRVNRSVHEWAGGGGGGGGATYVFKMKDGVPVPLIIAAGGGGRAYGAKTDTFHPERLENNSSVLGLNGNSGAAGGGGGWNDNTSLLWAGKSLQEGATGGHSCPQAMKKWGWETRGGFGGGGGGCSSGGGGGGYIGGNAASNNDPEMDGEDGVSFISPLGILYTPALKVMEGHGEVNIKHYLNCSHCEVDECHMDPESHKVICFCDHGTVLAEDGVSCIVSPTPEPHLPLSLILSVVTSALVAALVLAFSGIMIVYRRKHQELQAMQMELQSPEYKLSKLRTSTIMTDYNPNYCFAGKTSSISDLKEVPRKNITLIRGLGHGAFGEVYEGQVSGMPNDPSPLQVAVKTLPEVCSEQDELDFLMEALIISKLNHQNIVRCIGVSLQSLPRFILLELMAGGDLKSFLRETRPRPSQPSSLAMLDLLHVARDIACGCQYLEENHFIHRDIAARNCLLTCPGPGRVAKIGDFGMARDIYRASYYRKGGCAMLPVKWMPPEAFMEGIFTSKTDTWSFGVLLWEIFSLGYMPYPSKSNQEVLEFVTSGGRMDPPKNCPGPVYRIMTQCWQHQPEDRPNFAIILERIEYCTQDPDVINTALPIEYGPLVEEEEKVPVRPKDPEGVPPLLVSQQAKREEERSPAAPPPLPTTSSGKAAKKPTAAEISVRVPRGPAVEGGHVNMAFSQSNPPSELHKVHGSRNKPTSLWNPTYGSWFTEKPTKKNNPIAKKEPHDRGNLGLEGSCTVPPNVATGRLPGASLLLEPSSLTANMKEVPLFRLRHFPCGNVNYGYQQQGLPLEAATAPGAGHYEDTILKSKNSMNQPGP", "assay": "SelectScreen LanthaScreen", "type": "binding", "conditions": "read-out: % displacement", "outline": "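SelectScreen broad panel; activity (Z'LYTE, Adapta) plus binding formats. ATP: Km app for CSF1R Z'LYTE; 10 for CAMK1 Adapta. Readout = % per kinase.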", "data": [{"compound": "CN(C(=O)CN1CCOCC1)c1ccc2sc3c(-c4cccc5c(=O)cc(N6CC7CCC(C6)O7)oc45)cccc3c2c1", "note": "[NU5455]", "values": [{"measurement": "inhibition at 1 µM", "result": 1.6, "unit": "%"}]}]}
